Source: patent US12616713B2, “Methods for enhancing vascular density” (priority 2016, dated 2026)

What was measured:
C57BL/6J mice [1] = experiment: Contrast-enhanced ultrasound of hindlimb muscle perfusion; type: in vivo, mouse; details: 20-month old mice, NMN-treated versus vehicle
Method: Mice were anesthetized with isoflurane (1.5-2%, 500 ml 02/min), hindlimbs were shaved using depilatory cream and a 27-gauge catheter was placed into each mouse's tail and kept in place with surgical tape. Each mouse was placed in a supine position on a platform heated to 38° C. with each paw taped to a surface electrode to monitor ECG, heart rate, and respiratory rate. Contrast-enhanced ultrasound (CEU) (Vevo 2100, Visualsonics, Canada) was performed at an imaging frequency of 18 MHz. The probe was placed on the medial side of the leg to image the lower hindlimb in a sagittal plane. A bolus injection of microbubbles (Vevo MicroMarker, Canada) were injected through the tail vein catheter according to the manufacturer's instructions. A cine loop was recorded at a frame rate of 20 frames/s for a total of 1,000 frames. Curve fit analysis was used to measure echo power over time. The difference in maximum and minimum video intensity was determined as the peak enhancement and was the variable used to determine muscle perfusion.

C57BL/6J mice [2] = experiment: Optoacoustic imaging of hindlimb soluble oxygen (sO2); type: in vivo, mouse; details: 20-month old mice, photoacoustic tomography
Method: Optoacoustic imaging. An MSOT inVision 256-TF small animal imaging system (iThera Medical GmbH, Munich, Germany) was used (Morscher et al., 2014, Photoacoustics 2, 103-110). Mice were anesthetized with isoflurane (1.5-2%, 500 ml O2/min), and body portion below chest area was shaved using depilatory cream. The animals were then placed horizontally in the imaging chamber and three-dimensional scanning of the lower portion was performed as per manufacture's protocol. Briefly, a tunable optical parametric oscillator (OPO) pumped by an Nd:YAG laser provided excitation pulses with a duration of 9 ns at wavelengths from 680 nm to 980 nm at a repetition rate of 10 Hz with a wavelength tuning speed of 10 ms and a peak pulse energy of 100 mJ at 730 nm. Ten arms of a fiber bundle provided even illumination of a ring-shaped light strip of approx. 8 mm width. For ultrasound detection, 256 toroidally focused ultrasound transducers with a center frequency of 5 MHz (60% bandwidth), organized in a concave array of 270° angular coverage and a radius of curvature of 4 cm, were used.

C57BL/6J mice [3] = experiment: Treadmill endurance testing; type: in vivo, mouse
Method: Endurance testing. Treadmill tests were carried out on a 1050-RM Exer 3/6 Open Treadmill (Columbus Instruments, OH). Mice were acclimatized to the treadmill system for 3 days prior to endurance testing by running at 10-15 m/min for 20 min. In low intensity endurance testing, the speed started at 5 m/min for 5 min (warm up), and then the speed was increased by 1 every minute until 21 m/min and kept constant. In high intensity endurance testing, the speed started at 13 m/min for 5 min (warm up) at 5° inclination, and then the speed was increased by 1 every minute until 20 m/min and kept constant for 20 min. Every 20 min, the speed was increased by 5 m/min and held constant for 20 min. Mice were considered exhausted when they sat on the shocker plate for more than 10 sec without attempting to reinitiate running.

C57BL/6J mice [4] = experiment: Treadmill exercise training with or without NMN, muscle capillaries; type: in vivo, mouse
Method: Mice were acclimatized to the treadmill system for 3 days prior to the start of exercise training by running at 10 m/min for 20 min. The animals that were successfully acclimatized were then subjected to running at 15-20 m/min at 5° inclination for 30 minutes once daily for one month. Freshly isolated whole quadriceps and gastrocnemius muscle samples were mounted in OCT compound (Tissue-Tek), placed in an isopentane bath and slowly cooled in liquid nitrogen. Transverse sections at 20 μm-thickness were sectioned on a cryostat (Leica). The sections were fixed in pre-cooled acetone (-20° C.) for 10 min and washed with PBS. […] Slides were washed with PBST and then incubated with anti-rat Alexa Fluor 488-conjugated (Life Technologies) and anti-rabbit Alexa Fluor 594-conjugated (Life Technologies) antibodies diluted to 1:500 in blocking buffer for 2 h at room temperature. Slides were washed again with PBST and mounted with Fluoroshield with DAPI mounting medium (Sigma). Images were acquired using a confocal fluorescence microscope (Nikon A1). Quantification of capillaries and capillary density were performed using ImageJ software. TUNEL staining was performed in muscle sections using in situ BrdU-Red DNA fragmentation (TUNEL) assay kit (Abcam) as per manufacturer's protocol.

HUVECs = experiment: Wound scratch assay, HUVECs; type: cell-based, human; details: Scr or SIRT1 siRNA HUVECs, H2O2 150 μM 1 h, NaHS 100 μM and/or NMN 500 μM, 6 h
Method: ECs were cultured until forming a confluent monolayer and a scratch was made using a 200 μL pipette tip. Then the cells were allowed to migrate+/−NaHS (0.1 mM) and +/−NMN (0.5 mM) in EGM-2 medium for 6 hrs. Images were taken at the same location using a brightfield inverted microscope (Olympus 2467) every 2 h. The area of gap closure was calculated using ImageJ software. In some experiments, HUVECs were transduced with Scr or SIRT1 siRNA and cultured until forming a confluent monolayer. The cells were exposed to H2O2 (150 μM) for 1 h and a scratch was made using a 200 μL pipette tip. Then the cells were allowed to migrate with PBS (vehicle), NaHS (100 μM) and/or NMN (500 μM) in EGM-2 medium for 6 h. Images were taken at the same location using a brightfield inverted microscope (Olympus 2467) every 2 h. The area of gap closure was calculated using ImageJ software.

C57BL/6J mice [5] = experiment: TUNEL and CD31 co-staining of quadriceps capillaries; type: in vivo, mouse; details: aged quadriceps tissue, four weeks treatment; untreated 42%
Method: Freshly isolated whole quadriceps and gastrocnemius muscle samples were mounted in OCT compound (Tissue-Tek), placed in an isopentane bath and slowly cooled in liquid nitrogen. Transverse sections at 20 μm-thickness were sectioned on a cryostat (Leica). The sections were fixed in pre-cooled acetone (−20° C.) for 10 min and washed with PBS. Slides were then blocked in normal goat serum and 5% Blocking Reagent (PerkinElmer) in PBST (PBS with 0.1% Triton-X) for 1 h at room temperature, and then incubated with anti-CD31 (ab56299, Abcam) and anti-Laminin (L9393, Sigma), GFP (ab6556, Abcam) or SIRT1 (HPA006295, Sigma) antibodies diluted in blocking buffer overnight at 4° C. Slides were washed with PBST and then incubated with anti-rat Alexa Fluor 488-conjugated (Life Technologies) and anti-rabbit Alexa Fluor 594-conjugated (Life Technologies) antibodies diluted to 1:500 in blocking buffer for 2 h at room temperature. Slides were washed again with PBST and mounted with Fluoroshield with DAPI mounting medium (Sigma). Images were acquired using a confocal fluorescence microscope (Nikon A1). Quantification of capillaries and capillary density were performed using ImageJ software. TUNEL staining was performed in muscle sections using in situ BrdU-Red DNA fragmentation (TUNEL) assay kit (Abcam) as per manufacturer's protocol.

[6] = 20-month old mice, low intensity treadmill test

**Q.** What does the source list for NC(=O)c1ccc[n+]([C@@H]2O[C@H](COP(=O)([O-])O)[C@@H](O)[C@H]2O)c1 [NMN, nicotinamide mononucleotide]?
**A.** resting muscle perfusion (peak enhancement) (C57BL/6J mice [1]): increased resting muscle perfusion; soluble oxygen (sO2) levels in resting muscle, greater than vehicle-treated controls (C57BL/6J mice [2]): 15%; distance run further than untreated mice (C57BL/6J mice [3]; 20-month old mice, high-endurance exercise regimen): 80%; distance run until exhaustion (C57BL/6J mice [3]; [6]): 686 meters; low-intensity endurance, improvement over the untreated mice (C57BL/6J mice [3]; [6]): 56%; time and distance to exhaustion (endurance) (C57BL/6J mice [3]; 31-month old mice, low intensity treadmill test): significant trend towards increased time and distance to exhaustion; exercise capacity, including endurance (C57BL/6J mice [3]; mice (summary statement)): increased exercise capacity; more capillaries in gastrocnemii than sedentary mice (C57BL/6J mice [4]; exercised and NMN-treated mice): 70%; increase in vascular density and exercise capacity in conjunction with exercise versus without exercise (C57BL/6J mice [4]; mice (summary statement)): greater; capillary density or exercise capacity (C57BL/6J mice [4]; young mice kept sedentary, NMN 400 mg/kg/day): did not increase; increase in capillary density (C57BL/6J mice [4]; young mice, one month endurance training plus NMN 400 mg/kg/day, versus sedentary): 3.2 fold; cell migration (percentage of closed gaps) (HUVECs): had no effect; number of capillaries with apoptotic cells (C57BL/6J mice [5]): 17%
